In patent publication US7138238B2, “Ligand sensor devices and uses thereof” (priority 2001, dated 2006):
pKd: −log10 of the molar value. Read-outs that look alike come from different tables or passages of the source. Primed or numbered codes have the meaning given here. Ends that are not written are not given here. Biotin′ = not defined here

Columns and labels:
[1] = tested on: feline skeletal muscle homogenate; assay: Ligand sensor device binding assay, feline muscle homogenate; set-up: species or system cat
Method: (§1) Identification of a peptide of interest. Mice were euthanized with carbon dioxide gas and cats were euthanized with an overdose of pentobarbital administered intravenously (the use of animals was approved by the Auburn University Animal Care and Use Committee). After death, animals were perfused with ice-cold Phosphate Buffered Saline (PBS). Samples of mouse and cat skeletal muscle, mouse kidney, liver and brain were harvested. Tissue aliquots (200 mg) were homogenized in 4 ml PBS using a manual homogenizer. Immediately after homogenization samples were microcentrifuged for 10 min at 3,000 rpm, and the supernatants containing tissue vesicles were separated from the pellets. […] Vesicle concentration and integrity were examined by dark-field microscopy (Vodyanoy et al. (1994) Langmuir 10: 1354–1357). Dilutions of tissue samples were prepared in PBS as follows: 1:5, 1:25, 1:125, and 1:625. To perform the blocking experiment, free ASSLNIA peptide (1 mg/ml) synthesized by Research Genetics, Inc. (Huntsville, Ala., USA) was added to the murine skeletal muscle tissue homogenate (50 mg/ml) and incubated at room temperature for 1 hour with agitation. Protein concentration in tissue samples was determined using Bio-Rad® Protein Assay Kit (Bio-Rad Laboratories, Hercules, Calif., USA).
A 7-mer phage display peptide library (New England Biolabs, Inc., Beverly, Mass., USA) was screened as described in Samoylova and Smith (1999) Muscle & Nerve 22: 460–466.
Preparation of the sensor. AT-cut planar quartz crystal sensors with a 5 MHz nominal oscillating frequency were purchased from Maxtek, Inc. Circular gold electrodes were deposited on both sides of the crystal sensor for the electrical connection to the oscillatory circuit. The sensor was prepared to be coupled to the peptide by the addition of a Langmuir-Blodgett film of biotinylated lipid. Lipid monolayer depositions were carried out using a Langmuir-Blodgett (LB) film balance KSV 2200 LB (KSV-Chemicals, Finland). This fully computerized system includes a Wilhelmy-type surface balance (range 0–100 mN/m; sensitivity 0.05 mN/m), a Teflon trough (45×15 cm^2), a variable speed motor-driven Teflon barrier (0–200 mm/min), and a laminar flow hood. The trough was mounted on a 200 kg marble table. Vibration control was provided by interposing rubber shock absorbers and by mounting the laminar flow hood on a separate bench. Surface pressure was monitored by use of a sandblasted platinum plate of 4-cm perimeter. The temperature of the aqueous subphase (20° C. ±0.1° C.) was controlled by water circulation through a quartz tube coil on the bottom of the trough. The temperature of the aqueous subphase was measured by a thermistor located just below the air/liquid interface. […]

murine liver homogenate = assay: Ligand sensor device selectivity assay, murine liver homogenate; type: binding, mouse
Method: as §1
(§2) Coupling the peptide of interest to the sensor. The sensor, prepared as described above by the addition of a Langmuir-Blodgett film of biotinylated lipid, was then coupled to the peptide of interest by molecular assembly with streptavidin. Streptavidin was diluted to a final concentration of 0.01 mg/ml in the subphase solution and exposed to the LB film for 2 hours; the film was then rinsed with distilled water and dried for 2 min in ambient air. […] If necessary, this preparation step could be followed by a blocking step with a biotin solution. In this manner, the peptide of interest was coupled with the phospholipid via molecular assembly with streptavidin (see FIG. 1), thereby coupling the peptide of interest to the sensor to create the ligand sensor device (LSD). Each LSD was placed in an individual Petri dish and stored no longer than 24 hours at 4° C. until affinity assays were performed.
(§3) Quantifying the signal output from the ligand sensor device (LSD). Measurements were carried out using a PM-740 Maxtek plating monitor with a frequency resolution of 0.5 Hz at 5 MHz. […]
(§4) To evaluate the affinity of a ligand, the LSD was positioned in the probe arm of the instrument just before delivery of samples. Immediately after recording was started, 1000 μl phosphate buffered saline (PBS) was delivered with a pipette to the dry sensor surface and voltage was recorded for 4–8 minutes. […] Voltage output of the LSD was recorded and records were analyzed offline. […]

murine kidney homogenate = assay: Ligand sensor device selectivity assay, murine kidney homogenate; type: binding, mouse
Method: as §1, §2
Quantifying the signal output from the ligand sensor device (LSD). Measurements were carried out using a PM-740 Maxtek plating monitor with a frequency resolution of 0.5 Hz at 5 MHz. The voltage output from the Maxtek device is directly related to the resonance frequency of the quartz crystal sensor. Changes in the resonance frequency of the quartz crystal sensor were used to monitor the binding of homogenate vesicles to the sensor surface.
To evaluate the affinity of a ligand, the LSD was positioned in the probe arm of the instrument just before delivery of samples. Immediately after recording was started, 1000 μl phosphate buffered saline (PBS) was delivered with a pipette to the dry sensor surface and voltage was recorded for 4–8 minutes. The PBS was then removed carefully with a plastic pipette tip and a new recording was initiated. Tissue homogenates of different dilutions were added sequentially to the sensor and the same measuring procedure was followed after each addition. Each experiment was replicated 2–4 times, and the temperature of all samples was 25° C. Voltage output of the LSD was recorded and records were analyzed offline.
Binding selectivity of the Ligand Sensor Device.

murine brain homogenate = assay: Ligand sensor device selectivity assay, murine brain homogenate; type: binding, mouse
Method: as §1, §2, §3, §4

[2] = molecular target: murine skeletal muscle homogenates; assay: Ligand sensor device (acoustic wave sensor) binding assay, murine muscle homogenate; set-up: species or system mouse; conditions: for pKd: read-out: apparent dissociation constant Kd
Method: as §1, with “USA). […]” for “USA).”
Preparation of the sensor. AT-cut planar quartz crystal sensors with a 5 MHz nominal oscillating frequency were purchased from Maxtek, Inc. Circular gold electrodes were deposited on both sides of the crystal sensor for the electrical connection to the oscillatory circuit. The sensor was prepared to be coupled to the peptide by the addition of a Langmuir-Blodgett film of biotinylated lipid. Lipid monolayer depositions were carried out using a Langmuir-Blodgett (LB) film balance KSV 2200 LB (KSV-Chemicals, Finland). This fully computerized system includes a Wilhelmy-type surface balance (range 0–100 mN/m; sensitivity 0.05 mN/m), a Teflon trough (45×15 cm^2), a variable speed motor-driven Teflon barrier (0–200 mm/min), and a laminar flow hood. The trough was mounted on a 200 kg marble table. Vibration control was provided by interposing rubber shock absorbers and by mounting the laminar flow hood on a separate bench. Surface pressure was monitored by use of a sandblasted platinum plate of 4-cm perimeter. The temperature of the aqueous subphase (20° C. ±0.1° C.) was controlled by water circulation through a quartz tube coil on the bottom of the trough. The temperature of the aqueous subphase was measured by a thermistor located just below the air/liquid interface.
Monolayers were transferred onto the gold surface of an acoustic wave sensor using the Langmuir-Blodgett technique. Lipid solutions were spread on the aqueous subphase as hexane solutions (1 mg/ml) containing 2% ethanol (Ito et al. (1989) Thin Solid Films 180: 1–13). The lipid solutions contained phospholipid (N (biotinoyl)-1,2-dihexadecanoyl-SN-glycero-3-phosphoethanolamine). The aqueous subphase was a solution containing 55 mM KCl, 4 mM NaCl, 0.1 mM CaCl2, 1 mM MgCl2 and 2 mM 3-(N-morpholino)-propanesulfonic acid (MOPS) made with deionized double distilled water (pH 7.4). After spreading, the monolayer was allowed to equilibrate and stabilize for 10 min at 19° C.

[3] = Table 2, feline muscle homogenate
[4] = Table 1, blocked muscle: homogenate (50 mg/ml) incubated with free peptide (1 mg/ml) 1 hour at room temperature
[5] = Table 2, murine muscle homogenate

7-mer peptide selected in vivo for murine myofibers by phage display; coupled to the sensor as ASSLNIAGGGSK-Biotin (SEQ ID NO:3) (ASSLNIAGGGSK-{Biotin′}; also: coupled to the sensor)
Mmax [1, 3]: 32.8 ± 2.0 ng/cm^2
apparent dissociation constant Kd [1, 3]: 370 ± 50 mg/L
Hill coefficient ([1]; Table 2, feline muscle homogenate, equation 2): 0.93 ± 0.04
sensor response ([1]; feline muscle homogenates, compared to murine muscle): appreciable, but lower responses
sensitivity (S), slope of dose response (murine liver homogenate; Table 3, murine liver): 67.3 ± 6.0 V/decade
sensor response (murine liver homogenate; murine liver preparation): insignificant responses
Selectivity coefficient, K (murine liver homogenate; murine liver, K = Stissue/Smuscle): (5.0 ± 1.5) × 10^−1 relative units
Activity ratio, R (murine liver homogenate; murine liver, R = ΔCmuscle/ΔCtissue at protein concentration 0.01 mg/ml): (1.1 ± 0.4) × 10^−3 relative units
kidney homogenate needed to induce same response as 0.01 mg/ml muscle homogenate (murine kidney homogenate): more than 100 mg/ml
sensitivity (S), slope of dose response (murine kidney homogenate; Table 3, murine kidney): 41.8 ± 7.0 V/decade
selective preference for ligand(s) in muscle over kidney homogenates, factor (murine kidney homogenate; at 0.01 mg/ml muscle homogenate): more than 10,000
sensor response (murine kidney homogenate; murine kidney preparation): insignificant responses
Selectivity coefficient, K (murine kidney homogenate; murine kidney, K = Stissue/Smuscle): (3.1 ± 1.0) × 10^−1 relative units
sensitivity (S), slope of dose response (murine brain homogenate; Table 3, murine brain): 62.5 ± 16 V/decade
sensor response (murine brain homogenate; murine brain preparation): insignificant responses
Selectivity coefficient, K (murine brain homogenate; murine brain, K = Stissue/Smuscle): (4.6 ± 1.4) × 10^−1 relative units
Activity ratio, R (murine brain homogenate; murine brain, R = ΔCmuscle/ΔCtissue at protein concentration 0.01 mg/ml): (3.4 ± 1.1) × 10^−3 relative units
apparent dissociation constant Kd [2, 4]: 320 ± 50 mg/L
apparent maximal surface concentration of protein Mmax [2, 4]: 34.4 ± 3.0 ng/cm^2
apparent dissociation constant Kd ([2]; Table 1, murine muscle homogenate, calculated from Hill plots): 280 mg/L
apparent maximal surface concentration of protein Mmax ([2]; Table 1, murine muscle homogenate, estimated from increase of sensor voltage): 54.0 ± 4.0 ng/cm^2
Mmax [2, 5]: 50.5 ± 3.0 ng/cm^2
apparent dissociation constant Kd [2, 5]: 320 ± 50 mg/L
Hill coefficient ([2]; Table 2, murine muscle homogenate, equation 2): 0.92 ± 0.04
sensitivity (S), slope of dose response ([2]; Table 3, murine muscle): 134 ± 20.0 V/decade
apparent dissociation constant, level ([2]; assuming only a fraction of molecules on vesicle surface bind the peptide): subnanomolar level
pKd ([2]; corrected for target molecules being ~0.5% of vesicle mass): 8.00 to 8.30
Selectivity coefficient, K ([2]; murine muscle (reference), K = Stissue/Smuscle): 1.0 relative units
Activity ratio, R ([2]; murine muscle (reference), protein concentration 0.01 mg/ml): 1.0 relative units
time to approach steady-state signal output τ2 ([2]; murine muscle homogenate, each concentration, FIG. 2): 70 ± 20 s
initial delay in signal output response τ1 ([2]; murine muscle homogenate, independent of concentration, FIG. 2): 8 ± 1 s
sensor response ([2]; murine muscle homogenates): strong response
protein concentration at which signal was saturated ([2]; murine muscle homogenates, FIG. 3): about 5.0 mg/ml
sensor signal after blocking ([2]; preincubation of muscle homogenates with free peptide): significantly reduced signal
pKd ([2]; speculating target molecule of about 75–150 kD): 5.70 to 6.00
